Experimental findings from ChEMBL document CHEMBL1157316, “Resin glycosides from the flowers of Ipomoea murucoides” (2006) are described below.

Converted amounts (≈) assume the structure as drawn. A value given as a limit tells only on which side of the number the result lay.

For the first assay, the system named is HEp-2. Kind of assay: Cytotoxicity against human Hep2 cells after 72 hrs by SRB method. Type of assay: functional. Particulars: HEp-2, 72 h, read-out: ED50 (the source's name). (The SRB assay estimates cell density from bound dye.)
`CCCCC[C@H]1CCCCCCCCCC(=O)O[C@H]2[C@H](O[C@H]3[C@H](O1)O[C@H](C)[C@H](O)[C@@H]3O)O[C@@H](C)[C@H](O[C@@H]1O[C@@H](C)[C@H](O[C@@H]3O[C@@H](C)[C@H](OC(=O)[C@@H](C)CC)[C@@H](O)[C@H]3O)[C@@H](O[C@@H]3O[C@H](CO)[C@@H](O)[C@H](O)[C@H]3O)[C@H]1OC(=O)[C@@H](C)CC)[C@H]2O` [MURUCOIDIN IV]: the EC50 stood at 4 mg/L (≈ 3.42 µM).
Take `CCCCC[C@H]1CCCCCCCCCC(=O)O[C@H]2[C@H](O[C@H]3[C@H](O1)O[C@H](C)[C@H](O)[C@@H]3O)O[C@@H](C)[C@H](O[C@@H]1O[C@@H](C)[C@H](O[C@@H]3O[C@@H](C)[C@H](OC(=O)C(C)C)[C@@H](O)[C@H]3O)[C@@H](O[C@@H]3O[C@@H](C)[C@H](O)[C@@H](O)[C@H]3O)[C@H]1OC(=O)[C@@H](C)CC)[C@H]2O` [MURUCOIDIN II]: the EC50 was more than 20 mg/L.
The same measure, in the same setting: for `CC[C@]1(O)C[C@@H]2CN(CCc3c([nH]c4ccccc34)[C@@](C(=O)OC)(c3cc4c(cc3OC)N(C)[C@H]3[C@@](O)(C(=O)OC)[C@H](OC(C)=O)[C@]5(CC)C=CCN6CC[C@]43[C@@H]65)C2)C1` [VINBLASTINE] the value was 0.001 mg/L (≈ 0.00123 µM).
`CCCCC[C@H]1CCCCCCCCCC(=O)O[C@H]2[C@@H](O)[C@H](O[C@H]3[C@H](O1)O[C@H](C)[C@H](O)[C@@H]3O)O[C@@H](C)[C@@H]2O[C@@H]1O[C@@H](C)[C@H](O[C@@H]2O[C@@H](C)[C@H](OC(=O)[C@@H](C)CC)[C@@H](O)[C@H]2O)[C@@H](O[C@@H]2O[C@@H](C)[C@H](O)[C@@H](O)[C@H]2O)[C@H]1OC(=O)[C@@H](C)CC` [STOLONIFERIN I]: the EC50 is more than 20 mg/L.
In the case of `CCCCC[C@H]1CCCCCCCCCC(=O)O[C@H]2[C@H](O[C@H]3[C@H](O1)O[C@H](C)[C@H](O)[C@@H]3O)O[C@@H](C)[C@H](O[C@@H]1O[C@@H](C)[C@H](O[C@@H]3O[C@@H](C)[C@H](OC(=O)[C@@H](C)CC)[C@@H](O)[C@H]3O)[C@@H](O[C@@H]3O[C@@H](C)[C@H](O)[C@@H](O)[C@H]3O)[C@H]1OC(=O)[C@@H](C)CC)[C@H]2O` [MURUCOIDIN III], the EC50 is more than 20 mg/L.
Take `CCCCC[C@H]1CCCCCCCCCC(=O)O[C@H]2[C@@H](O)[C@H](O[C@H]3[C@H](O1)O[C@H](C)[C@H](O)[C@@H]3O)O[C@@H](C)[C@@H]2O[C@@H]1O[C@@H](C)[C@H](O[C@@H]2O[C@@H](C)[C@H](OC(=O)[C@@H](C)CC)[C@@H](O)[C@H]2O)[C@@H](O[C@@H]2O[C@H](CO)[C@@H](O)[C@H](O)[C@H]2O)[C@H]1OC(=O)[C@@H](C)CC` [MURUCOIDIN V]: the EC50 was more than 20 mg/L.
On the same count and under the same terms, for `CCCCC[C@H]1CCCCCCCCCC(=O)O[C@H]2[C@H](O[C@H]3[C@H](O1)O[C@H](C)[C@H](O)[C@@H]3O)O[C@@H](C)[C@H](O[C@@H]1O[C@@H](C)[C@H](O[C@@H]3O[C@@H](C)[C@H](O)[C@@H](O)[C@H]3O)[C@@H](O[C@@H]3O[C@@H](C)[C@H](O)[C@@H](O)[C@H]3O)[C@H]1OC(=O)[C@@H](C)CC)[C@H]2O` [MURUCOIDIN I] the value was more than 20 mg/L.

A further assay concerns KB. Kind of assay: Cytotoxicity against human KB cells after 72 hrs by SRB method. Type of assay: functional. Particulars: read-out: ED50 (the source's name).
In the case of `CC[C@]1(O)C[C@@H]2CN(CCc3c([nH]c4ccccc34)[C@@](C(=O)OC)(c3cc4c(cc3OC)N(C)[C@H]3[C@@](O)(C(=O)OC)[C@H](OC(C)=O)[C@]5(CC)C=CCN6CC[C@]43[C@@H]65)C2)C1` [VINBLASTINE], the EC50 is 0.05 mg/L (≈ 0.0617 µM).
